Data taken from paper PMC10539439 (Pharmacological Reports, 2023).

Tests used:
[1] = Pharmacokinetics in plasma after ip administration; type: in vivo, rat; details: for concentration at 5 min / concentration at 15 min / concentration at 30 min / concentration at 60 min / concentration at 120 min / concentration at 240 min / CL/F / Tmax / Vd/F / half-life: male, Wistar, plasma; for concentration at 5 min / concentration at 15 min / concentration at 30 min / concentration at 60 min / concentration at 120 min / concentration at 240 min / CL/F / Tmax / Vd/F / half-life / volume of distribution: rat; for concentration at 5 min / concentration at 15 min / concentration at 30 min / concentration at 60 min / concentration at 120 min / concentration at 240 min: intraperitoneal, mean; for concentration at 5 min: 5 min after administration; for concentration at 15 min: 15 min after administration; for concentration at 30 min: 30 min after administration; for concentration at 60 min: 60 min after administration; for concentration at 120 min: 120 min after administration; for concentration at 240 min: 240 min after administration; for CL/F / Tmax / Vd/F / half-life / t0.5 terminal half-life / volume of distribution: ip; for half-life / t0.5 terminal half-life: rat plasma; for half-life / t0.5 terminal half-life / volume of distribution: Guanabenz 0.3 mg/kg, 4-OH-Guanabenz 0.4 mg/kg; for half-life: read-out: t0.5 terminal half-life
Experimental: (§1) For the pharmacokinetic study, a group of 56 adult male rats (Wistar, 220–250 g, […]) were used in the experiment. Animals were purchased from the Animal House of the Faculty of Pharmacy of Jagiellonian University Medical College, Krakow, Poland. During the habituation period, the groups of 4 rats were kept in a plastic cage at a controlled room temperature (22 ± 2 ℃), humidity (55 ± 10%), full-spectrum cold white light (350–400 lx), in 12 h light/dark cycles (the lights on at 7:00 am, and off at 19:00 pm), and had free access to standard laboratory pellet and tap water. […] These were then given through an intraperitoneally injections (ip) at a dose of 0.3 mg/kg and 0.4 mg/kg, respectively. Blood samples were collected at 0 min (predose), 5 min, 15 min, 30 min, 60 min, 120 min, and 240 min after compound administration. Blood and brain samples were collected under general anesthesia induced by ip injections of 50 mg/kg ketamine plus 8 mg/kg xylazine. Blood samples were taken in heparinized tubes and immediately centrifuged at 3500 rpm for 10 min, and plasma was collected. Brain and plasma samples were immediately frozen at – 80 ℃ for LC/MS/MS analysis. All experimental procedures were carried out according to EU Directive 2010/63/EU and approved by the I Local Ethics Committee for Animal Experiments of the Jagiellonian University in Krakow, Poland (No. 94/2016).
(§2) The pharmacokinetic parameters were calculated using a non-compartmental approach from the average concentration values, using Phoenix WinNonlin software (Certara, Princeton, NJ 08540 USA). The first-order elimination rate constant (λz) was calculated by linear regression of time versus log concentration. Next, the area under the mean plasma and the concentration in the brain versus the time curve (AUC0→t) were estimated using the log-linear trapezoidal rule (Eq. 1), where Cn is the concentration of the last sampling of each compound1 AUC0→t=∑i=1n(Ci+Ci+1)/2·ti+1-ti+Cn/λz.
The area under the first-moment curve (AUMC0→t) was estimated by calculating of the total area under the first-moment curve using Eq. 2, where tn is the time of last sampling2 AUMC0→t=∑i=1n(ti·Ci+ti+1·Ci+1)/2·ti+1-ti+(tn·Cn)/λz+Cn/λz2.
Mean residence time (MRT, Eq. 3) was calculated as3 MRT=AUMC0→t/AUC0→t.
Total clearance (ClT, Eq. 4) was calculated as4 C1T=F·Di.p./AUC0→t.
(§3) The quantification of compounds in plasma and brain samples was performed using the Sciex API 3200 triple quadrupole mass spectrometer (Concord, Ontario, Canada) equipped with an electrospray (ESI) ionization interface. This instrument was coupled to an Elite LaChrom (Hitachi, USA) HPLC system. Data acquisition and processing were performed using Sciex Analyst 1.5.2 data collection and integration software. After preparation, the samples were injected (20 µL) onto XBridge C18 (2.1 mm × 30 mm, 3.5 μm, Waters, Milford, Massachusetts, USA) analytical column. The mobile phase consisted of 0.1% formic acid in acetonitrile (A) and 0.1% formic acid in water (B) was delivered in a gradient elution starting with 90% of eluent B, increasing for 2 min to 90% of eluent A, maintained for 3 min, and then returned for 5 min to 90% of eluent B, and maintained 90% of eluent B during 5 min at a flow rate of 300 µL/min. The total analysis time was 10 min. […] The ion spray source settings were as follows: spray voltage: 5.5 kV, heater temperature: 400 °C, curtain gas: 10 psi, source gas 1: 20 psi, and source gas 2: 20 psi.
Further dilutions were performed using the same solvent to prepare working standard solutions of the analyte at the following concentrations: 0.025, 0.05, 0.1, 0.25, 0.5, 1.0, 2.5, 5.0, 10, 25, and 50 µg/mL for calibration curve samples (CC) and 0.025, 0.075, 2.2, and 4.5 µg/mL for quality control samples (QC). […]

[2] = Distribution in brain after ip administration; type: in vivo, rat; details: for Tmax / concentration at 5 min / concentration at 15 min / concentration at 30 min / concentration at 60 min / concentration at 120 min / concentration at 240 min: male, Wistar, rat, brain; for concentration at 5 min / concentration at 15 min / concentration at 30 min / concentration at 60 min / concentration at 120 min / concentration at 240 min: intraperitoneal, mean; for concentration at 5 min: 5 min after administration; for concentration at 15 min: 15 min after administration; for concentration at 30 min: 30 min after administration; for concentration at 60 min: 60 min after administration; for concentration at 120 min: 120 min after administration; for concentration at 240 min: 240 min after administration; for Penetration into the brain: summary table
Experimental: as §1, with “Poland.” for “Poland. During the habituation period, the groups of 4 rats were kept in a plastic cage at a controlled room temperature (22 ± 2 ℃), humidity (55 ± 10%), full-spectrum cold white light (350–400 lx), in 12 h light/dark cycles (the lights on at 7:00 am, and off at 19:00 pm), and had free access to standard laboratory pellet and tap water.”
as §2, §3
Further dilutions were performed using the same solvent to prepare working standard solutions of the analyte at the following concentrations: 0.025, 0.05, 0.1, 0.25, 0.5, 1.0, 2.5, 5.0, 10, 25, and 50 µg/mL for calibration curve samples (CC) and 0.025, 0.075, 2.2, and 4.5 µg/mL for quality control samples (QC). To prepare samples for calibration curve or quality control samples, 45 µL of the matrix (plasma or brain homogenate) was added with 5 µL of internal standard solution (1 µg/mL) obtaining the final concentration of 100 ng/mL and 5 µL of standard working solutions at the needed CC or QC concentration levels. After the addition of the standard solution, the samples were mixed and purified.
A sample volume of 50 µL of plasma or brain homogenate was transferred to the clean Eppendorf tube and spiked with 5 µL of IS solution (1 µg/mL) obtaining the final concentration of 100 ng/mL. After 5 min of mixing (1500 rpm) proteins were precipitated using 200 µL ACN. After 10 min of sample shaking (1500 rpm), the incubation step was performed (10 min, 4 °C). The samples were then centrifuged (10,000 rpm, 10 min, 4 °C) and the supernatant was transferred to chromatographic vials for LC/MS/MS analysis.

[3] = rat brain, ip, Guanabenz 0.3 mg/kg, 4-OH-Guanabenz 0.4 mg/kg

Row | SMILES | concentration at 5 min [1] [ng/mL] | concentration at 15 min [1] [ng/mL] | concentration at 30 min [1] [ng/mL] | concentration at 60 min [1] [ng/mL] | concentration at 120 min [1] [ng/mL] | concentration at 240 min [1] [ng/mL] | CL/F [1] [mL/min/kg] | Tmax [1] [h] | Vd/F [1] [L/kg] | half-life [1] [h] | t0.5 terminal half-life [1] [h] | volume of distribution [1] [L/kg] | Tmax ([2]; ip) [h] | concentration at 5 min [2] [ng/g] | concentration at 15 min [2] [ng/g] | concentration at 30 min [2] [ng/g] | concentration at 60 min [2] [ng/g] | concentration at 120 min [2] [ng/g] | concentration at 240 min [2] [ng/g] | t0.5 [2, 3] [min] | further results
1 | Cl.N=C(N)NN=Cc1c(Cl)cc(O)cc1Cl [4-OH-Guanabenz, 2-[(2,6-Dichloro-4-hydroxyphenyl)methylene]hydrazinecarboximidamide Hydrochloride] | 54.3 | 101 | 20.2 | 41.9 | 8.65 | 6.52 | 17.7 | 0.25 | 1.75 | ~1.15 | 1.14 | 1.7 | 0.25 | 13.3 | 64.5 | 23.9 | 4.54 | 3.94 | 3.2 | 112.7 | AUC0→t [2, 3]: 2573 ng ⋅ min/g; Penetration into the brain [2]: Poor
2 | N=C(N)N/N=C/c1c(Cl)cccc1Cl [Guanabenz] | 10.2 | 91.2 | 95.1 | 14.2 | 26.1 | 8.53 | 13.5 | 0.5 | 1.61 | ~1.38 | 1.38 | 1.6 | 1 | 45.6 | 110 | 164 | 183 | 92.5 | 58.6 | 116.1 | Tmax ([2]; ip, 0.3 mg/kg): ≤ 1 h; Penetration into the brain [2]: Good
